{"source": "paper PMC6010117", "about": "“Isatin: a privileged scaffold for the design of carbonic anhydrase inhibitors” (Journal of Enzyme Inhibition and Medicinal Chemistry, 2016)", "assay_in_all_cases": "CA inhibition assay, Verpoorte method at […] nm, Lineweaver-Burk", "type_in_all_cases": "biochemical", "key": {"hCA IX": {"biological_target": "T1, hCA IX (Homo sapiens, UniProt Q16790)", "T1 construct": "gene CA9; not described"}, "hCA XII": {"biological_target": "T2, hCA XII (Homo sapiens, UniProt O43570)", "T2 construct": "gene CA12; not described", "T2 sequence (O43570 25-354)": "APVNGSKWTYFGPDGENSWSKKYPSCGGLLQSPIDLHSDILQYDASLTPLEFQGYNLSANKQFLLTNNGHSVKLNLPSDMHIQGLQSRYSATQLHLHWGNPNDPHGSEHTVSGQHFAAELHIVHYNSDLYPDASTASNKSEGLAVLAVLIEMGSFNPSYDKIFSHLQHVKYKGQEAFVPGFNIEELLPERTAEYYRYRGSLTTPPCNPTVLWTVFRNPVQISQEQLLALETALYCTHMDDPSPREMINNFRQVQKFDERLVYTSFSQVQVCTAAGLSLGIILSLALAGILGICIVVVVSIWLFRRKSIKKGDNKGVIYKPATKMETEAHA"}, "hCA I": {"biological_target": "T3, hCA I (Homo sapiens, UniProt P00915)", "T3 construct": "gene CA1", "T3 sequence (P00915 2-261)": "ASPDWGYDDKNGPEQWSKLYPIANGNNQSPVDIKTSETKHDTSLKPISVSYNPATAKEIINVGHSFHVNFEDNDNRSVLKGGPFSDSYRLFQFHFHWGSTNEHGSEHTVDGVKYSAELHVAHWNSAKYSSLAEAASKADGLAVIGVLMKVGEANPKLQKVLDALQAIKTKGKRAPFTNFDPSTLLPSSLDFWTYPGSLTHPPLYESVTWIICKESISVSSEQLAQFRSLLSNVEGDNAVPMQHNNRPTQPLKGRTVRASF"}, "hCA II": {"biological_target": "T4, hCA II (Homo sapiens, UniProt P00918)", "T4 construct": "gene CA2"}}, "data": [{"smiles": "CN1C(=O)C(=C2C(=O)Nc3ccc(Cl)cc32)SC1=Nc1ccc(S(N)(=O)=O)cc1", "note": "[c, EMAC 10020 c]", "values": [{"measurement": "Ki", "setting": "hCA IX", "value": 55.7, "unit": "nM"}, {"measurement": "Ki", "setting": "hCA XII", "value": 865, "unit": "nM"}, {"measurement": "Ki", "setting": "hCA I", "value": 958, "unit": "nM"}, {"measurement": "Ki", "setting": "hCA II", "value": 8300, "unit": "nM"}]}, {"smiles": "CN1C(=O)C(=C2C(=O)Nc3ccc(F)cc32)SC1=Nc1ccc(S(N)(=O)=O)cc1", "note": "[d, EMAC 10020 d]", "values": [{"measurement": "Ki", "setting": "hCA IX", "value": 50.7, "unit": "nM"}, {"measurement": "Ki", "setting": "hCA XII", "value": 85, "unit": "nM"}, {"measurement": "Ki", "setting": "hCA I", "value": 50.3, "unit": "nM"}, {"measurement": "Ki", "setting": "hCA II", "value": 274, "unit": "nM"}]}, {"smiles": "Cc1ccc2c(c1)C(=C1SC(=Nc3ccc(S(N)(=O)=O)cc3)N(C)C1=O)C(=O)N2", "note": "[l, EMAC 10020 l]", "values": [{"measurement": "Ki", "setting": "hCA IX", "value": 3, "unit": "nM"}, {"measurement": "Ki", "setting": "hCA XII", "value": 440, "unit": "nM"}, {"measurement": "Ki", "setting": "hCA I", "value": 87.6, "unit": "nM"}, {"measurement": "Ki", "setting": "hCA II", "value": 79.1, "unit": "nM"}]}, {"smiles": "CN1C(=O)C(=C2C(=O)Nc3c(F)cccc32)SC1=Nc1ccc(S(N)(=O)=O)cc1", "note": "[m, EMAC 10020 m]", "values": [{"measurement": "Ki", "setting": "hCA IX", "value": 4.1, "unit": "nM"}, {"measurement": "Ki", "setting": "hCA XII", "value": 90.7, "unit": "nM"}, {"measurement": "Ki", "setting": "hCA I", "value": 44.3, "unit": "nM"}, {"measurement": "Ki", "setting": "hCA II", "value": 139, "unit": "nM"}]}, {"smiles": "CN1C(=O)C(=C2C(=O)Nc3ccc(C(F)(F)F)cc32)SC1=Nc1ccc(S(N)(=O)=O)cc1", "note": "[n, EMAC 10020 n]", "values": [{"measurement": "Ki", "setting": "hCA IX", "value": 2660, "unit": "nM"}, {"measurement": "Ki", "setting": "hCA XII", "value": 873, "unit": "nM"}, {"measurement": "Ki", "setting": "hCA I", "value": 945, "unit": "nM"}, {"measurement": "Ki", "setting": "hCA II", "value": 5720, "unit": "nM"}]}, {"smiles": "CN1C(=O)C(=C2C(=O)Nc3c(Br)cccc32)SC1=Nc1ccc(S(N)(=O)=O)cc1", "note": "[o, EMAC 10020 o]", "values": [{"measurement": "Ki", "setting": "hCA IX", "value": 126, "unit": "nM"}, {"measurement": "Ki", "setting": "hCA XII", "value": 824, "unit": "nM"}, {"measurement": "Ki", "setting": "hCA I", "value": 877, "unit": "nM"}, {"measurement": "Ki", "setting": "hCA II", "value": 8780, "unit": "nM"}]}]}
